Test [1] has as its system α-rhamnosidase. Description: Enzymatic hydrolysis of the muscat glycosidic extract by α-rhamnosidase (GC). It counts as biochemical. The following applies: 0.15 nkat, 40° C., 16 h. How it is done: (§1) 40 μl of glycosidic extract and 60 μl of a solution of Glc-pNP (internal standard) at a concentration of 50 mg/1 in ethyl acetate are introduced into a suitable flask. The mixture is taken to dryness at 40° C. with a stream of nitrogen. 40 μl of the silylating reagent (Tri-sil, Pierce, Rockford, Ill., U.S.A.) are then introduced; the flask is sealed and maintained at 40° C. for 20 minutes. After rapid cooling, the silylated sample is then ready for analysis by GC.
(§2) The apparatus used consists of a Series 30C gas chromatograph, an "on-column" injector (injected volume 0.5 μl) and a flame ionization detector (Girdel, France). A thin film (0.20 μm) of an OV-1 (Girdel) apolar silicone phase is grafted onto the inner wall of the capillary column ([…].). The oven temperature is programmed from 125 to 305° C. at the rate of 5° C./minute, then maintained at 305° C. for 15 minutes. Finally, the detector temperature is set at 300° C. and hydrogen is used as the carrier gas at a pressure of 120 kPa.
(§3) The experimental protocols for the enzymatic hydrolysis on the glycosidic extract are collated in Table 3. […]

Test [2] relates to β-glucosidase. The conditions noted are these: cited from earlier work.
Test [3] deals with T1, β-glucosidase of Klerzyme 200 (Aspergillus niger, UniProt A2RAL4).
T1 sequence (A2RAL4 20-860): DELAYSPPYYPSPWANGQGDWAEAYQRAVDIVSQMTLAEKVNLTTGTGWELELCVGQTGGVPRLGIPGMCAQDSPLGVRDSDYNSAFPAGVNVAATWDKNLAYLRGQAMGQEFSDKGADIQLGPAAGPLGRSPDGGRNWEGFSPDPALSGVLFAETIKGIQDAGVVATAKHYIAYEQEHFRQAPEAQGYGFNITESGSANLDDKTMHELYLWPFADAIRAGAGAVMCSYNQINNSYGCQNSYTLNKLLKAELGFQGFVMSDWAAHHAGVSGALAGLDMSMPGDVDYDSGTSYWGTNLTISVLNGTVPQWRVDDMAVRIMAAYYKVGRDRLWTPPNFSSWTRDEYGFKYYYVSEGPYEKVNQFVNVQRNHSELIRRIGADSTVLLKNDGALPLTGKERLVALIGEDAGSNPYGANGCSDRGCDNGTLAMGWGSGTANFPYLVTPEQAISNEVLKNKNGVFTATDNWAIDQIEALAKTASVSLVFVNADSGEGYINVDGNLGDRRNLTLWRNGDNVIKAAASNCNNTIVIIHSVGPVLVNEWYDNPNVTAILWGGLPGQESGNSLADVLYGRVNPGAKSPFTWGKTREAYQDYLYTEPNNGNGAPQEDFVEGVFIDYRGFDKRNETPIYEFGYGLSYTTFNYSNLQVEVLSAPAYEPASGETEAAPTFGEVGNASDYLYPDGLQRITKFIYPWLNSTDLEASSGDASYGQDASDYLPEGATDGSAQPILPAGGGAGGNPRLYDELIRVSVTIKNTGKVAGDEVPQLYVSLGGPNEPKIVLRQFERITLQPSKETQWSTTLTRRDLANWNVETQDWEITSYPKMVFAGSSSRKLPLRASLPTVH
Description: Hydrolysis of Hemicellulase-pretreated glycosidic extract by Klerzyme 200 (GC). It counts as biochemical. The conditions noted are these: glycosidic extract pretreated with Hemicellulase. The source says: In another aspect, the action of the β-apiosidase on a glycosidic extract (FIG. 11A) was studied after the action of the Hemicellulase preparation (containing α-rhamnosidase, α-arabinosidase and β-glucosidase activities) on this extract. The Hemicellulase preparation eliminated the rhamnosyl- and arabinosylglucosides (FIG. 11B). Afterwards, the apiosylglucosides remaining were subjected to the hydrolytic action of the β-apiosidase and β-glucosidase of Klerzyme 200 (FIG. 11C). […] This is attributable to the weak affinity of the β-glucosidase of Klerzyme 200, vis-a-vis the linalyl glucosides.

For test [4], the system named is β-glucosidase. Description: Second stage: consecutive action of β-glucosidase on the pre-incubated glycosidic extract (GC). It counts as biochemical, sweet almond. The conditions noted are these: 0.15 nkat, 40°, 16 h. As for the experimental part:
as §1, §2, §3

Test [5] in a line: Vinification of Muscat of Frontignan must with Klerzyme 200, free and bound aroma components by GC.
Description: After storing for 1.5 months at 20°-22° C., the free and bound aroma component fractions of each sample were extracted on an Amberlite XAD-2 column in 50 ml aliquots, and analyzed via GC.
In another aspect, the action of an enzyme preparation (Klerzyme 200) containing β-apiosidase activity, in addition to α-rhamnosidase, α-arabinosidase and β-glucosidase activity, was studied during the fermentation of dry wines from the Muscat of Frontignan must. Klerzyme 200 (containing (per liter must) 2,770 nkat β-glucosidase, 704 nkat β-apiosidase, 276 nkat α-arabinosidase and 35 nkat α-rhamnosidase) and 10 g/hl of a wine yeast (Saccharomyces cerevisiae, type K1) were added to the must.
Test [6] relates to α-arabinosidase. Description: Enzymatic hydrolysis of the muscat glycosidic extract by α-arabinosidase (GC). It counts as biochemical. As for the experimental part: as §1, §2, §3

Data on 1 compound can be found in patent US5573926A, “Process for obtaining aroma components and aromas from their precursors of a glycosidic nature, and aroma components and aromas thereby obtained” (Gist-brocades, N.V., priority 1989, dated 1996).

With `C=CC(C)(CCC=C(C)C)O[C@@H]1O[C@H](CO)[C@@H](O)[C@H](O)[C@H]1O` (stereo partly drawn) [Glc-Lin, linalyl β-D-glucopyranoside], in test [1], the “Terpene monoglucosides liberated by α-rhamnosidase from a glycosidic extract” value was determined as 9%. In test [2], the “affinity of the sweet almond β-glucosidase for the substrate” value is given as “low affinity”. Further, the “hydrolysis by the β-glucosidase of Klerzyme 200” value in test [3] was “not hydrolyzed”. Moreover, the “hydrolysis by consecutive action of β-glucosidase (second stage, GC)” value in test [4] (listed as linalyl glucoside) was “incomplete hydrolysis”; in test [4] (listed as linanyl monoglucoside), “reduction”. For the same compound, the “hydrolysis by Klerzyme 200 during vinification of dry wine” value in test [5] was “not hydrolyzed”. In addition, the “Terpene monoglucosides liberated by α-arabinosidase from a glycosidic extract” value in test [6] (0.15 nkat, 40° C., 16 h) came out at 10%. Moreover, the “% of monoglucosides (liberated by the two enzymes together)” value in test [6] (sum of α-arabinosidase and α-rhamnosidase) worked out at 19%.
